Test results from ChEMBL document CHEMBL6121046, “Discovery of Novel Hydrazide-Based HDAC3 Inhibitors as Epigenetic Immunomodulators for Cancer Immunotherapy” (J Med Chem, 2025).

Target: Histone deacetylase 1 (Homo sapiens, UniProt Q13547)
Assay: Inhibition of human recombinant HDAC1 pre-incubated with compounds for 10 mins measured followed by 60 mins of substrate addition
Conditions: not given

Histone deacetylase 1, sequence (Q13547 whole entry): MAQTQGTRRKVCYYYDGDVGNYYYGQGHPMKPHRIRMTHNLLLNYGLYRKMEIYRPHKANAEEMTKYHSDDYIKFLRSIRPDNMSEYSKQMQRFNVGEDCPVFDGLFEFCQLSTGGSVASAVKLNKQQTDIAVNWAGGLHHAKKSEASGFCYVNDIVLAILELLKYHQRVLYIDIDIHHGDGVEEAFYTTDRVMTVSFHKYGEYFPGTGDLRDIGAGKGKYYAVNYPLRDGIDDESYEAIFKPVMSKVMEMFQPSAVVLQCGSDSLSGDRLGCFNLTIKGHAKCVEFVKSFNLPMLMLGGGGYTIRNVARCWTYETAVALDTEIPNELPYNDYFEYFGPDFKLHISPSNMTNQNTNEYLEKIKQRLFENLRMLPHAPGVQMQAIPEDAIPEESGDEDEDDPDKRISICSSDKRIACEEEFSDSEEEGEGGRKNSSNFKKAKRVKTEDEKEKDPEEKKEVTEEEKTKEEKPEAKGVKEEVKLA

Compound | IC50 [nM]
Nc1ccccc1NC(=O)c1ccc(CNC(=O)c2cnc(-c3ccc4occc4c3)[nH]2)cc1 | 4180
Nc1ccccc1NC(=O)c1ccc(CNC(=O)c2cnc(-c3ccc4ccccc4c3)[nH]2)cc1 | 4620
Nc1ccccc1NC(=O)c1ccc(CNC(=O)c2cnc(-c3cccc4ccccc34)[nH]2)cc1 | 2430

Continued, values first:

IC50 [nM] | Compound
3910 | CCCNNC(=O)c1ccc(CNC(=O)c2cnc(-c3ccc4c(c3)OCCO4)[nH]2)cc1
960 | CCCNNC(=O)c1ccc(CNC(=O)c2cnc(-c3ccc(F)cc3)[nH]2)cc1
2360 | CCCNNC(=O)c1ccc(CNC(=O)c2cnc(-c3ccc(OC)cc3)[nH]2)cc1
3240 | CCCNNC(=O)c1ccc(CNC(=O)c2cnc(-c3ccnc4ccccc34)[nH]2)cc1
1740 | CCCNNC(=O)c1ccc(CNC(=O)c2cnc(-c3ccc4ccccc4c3)[nH]2)cc1

Target: Histone deacetylase 3 (Homo sapiens, UniProt O15379)
Sequence (O15379 whole entry): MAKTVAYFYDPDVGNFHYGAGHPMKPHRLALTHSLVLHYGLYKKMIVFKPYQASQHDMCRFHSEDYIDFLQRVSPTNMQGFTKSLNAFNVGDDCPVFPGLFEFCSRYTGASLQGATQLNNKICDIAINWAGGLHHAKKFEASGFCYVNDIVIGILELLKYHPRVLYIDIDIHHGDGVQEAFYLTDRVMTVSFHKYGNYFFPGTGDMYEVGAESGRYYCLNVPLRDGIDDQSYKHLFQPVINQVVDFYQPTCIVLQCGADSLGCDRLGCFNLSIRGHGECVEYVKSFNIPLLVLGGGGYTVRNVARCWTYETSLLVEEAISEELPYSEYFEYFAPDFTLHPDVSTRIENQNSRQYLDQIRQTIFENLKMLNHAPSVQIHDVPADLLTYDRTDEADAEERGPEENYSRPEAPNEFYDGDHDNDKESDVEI
Assay: Inhibition of human recombinant HDAC3 pre-incubated with compounds for 10 mins measured followed by 60 mins of substrate addition
Conditions: not given

Compound | IC50 [nM]
Nc1ccccc1NC(=O)c1ccc(CNC(=O)c2cnc(-c3ccc4occc4c3)[nH]2)cc1 | 91
Nc1ccccc1NC(=O)c1ccc(CNC(=O)c2cnc(-c3ccc4ccccc4c3)[nH]2)cc1 | 100
Nc1ccccc1NC(=O)c1ccc(CNC(=O)c2cnc(-c3cccc4ccccc34)[nH]2)cc1 | 96

More lines, now with the values ahead:

IC50 [nM] | Compound
290 | CCCNNC(=O)c1ccc(CNC(=O)c2cnc(-c3ccc4c(c3)OCCO4)[nH]2)cc1
130 | CCCNNC(=O)c1ccc(CNC(=O)c2cnc(-c3ccc(F)cc3)[nH]2)cc1
88 | CCCNNC(=O)c1ccc(CNC(=O)c2cnc(-c3ccc(OC)cc3)[nH]2)cc1
170 | CCCNNC(=O)c1ccc(CNC(=O)c2cnc(-c3ccnc4ccccc34)[nH]2)cc1
74 | CCCNNC(=O)c1ccc(CNC(=O)c2cnc(-c3ccc4ccccc4c3)[nH]2)cc1

Target: T1, Protein deacetylase HDAC6 (Homo sapiens, UniProt Q9UBN7)
T1 sequence (Q9UBN7 whole entry): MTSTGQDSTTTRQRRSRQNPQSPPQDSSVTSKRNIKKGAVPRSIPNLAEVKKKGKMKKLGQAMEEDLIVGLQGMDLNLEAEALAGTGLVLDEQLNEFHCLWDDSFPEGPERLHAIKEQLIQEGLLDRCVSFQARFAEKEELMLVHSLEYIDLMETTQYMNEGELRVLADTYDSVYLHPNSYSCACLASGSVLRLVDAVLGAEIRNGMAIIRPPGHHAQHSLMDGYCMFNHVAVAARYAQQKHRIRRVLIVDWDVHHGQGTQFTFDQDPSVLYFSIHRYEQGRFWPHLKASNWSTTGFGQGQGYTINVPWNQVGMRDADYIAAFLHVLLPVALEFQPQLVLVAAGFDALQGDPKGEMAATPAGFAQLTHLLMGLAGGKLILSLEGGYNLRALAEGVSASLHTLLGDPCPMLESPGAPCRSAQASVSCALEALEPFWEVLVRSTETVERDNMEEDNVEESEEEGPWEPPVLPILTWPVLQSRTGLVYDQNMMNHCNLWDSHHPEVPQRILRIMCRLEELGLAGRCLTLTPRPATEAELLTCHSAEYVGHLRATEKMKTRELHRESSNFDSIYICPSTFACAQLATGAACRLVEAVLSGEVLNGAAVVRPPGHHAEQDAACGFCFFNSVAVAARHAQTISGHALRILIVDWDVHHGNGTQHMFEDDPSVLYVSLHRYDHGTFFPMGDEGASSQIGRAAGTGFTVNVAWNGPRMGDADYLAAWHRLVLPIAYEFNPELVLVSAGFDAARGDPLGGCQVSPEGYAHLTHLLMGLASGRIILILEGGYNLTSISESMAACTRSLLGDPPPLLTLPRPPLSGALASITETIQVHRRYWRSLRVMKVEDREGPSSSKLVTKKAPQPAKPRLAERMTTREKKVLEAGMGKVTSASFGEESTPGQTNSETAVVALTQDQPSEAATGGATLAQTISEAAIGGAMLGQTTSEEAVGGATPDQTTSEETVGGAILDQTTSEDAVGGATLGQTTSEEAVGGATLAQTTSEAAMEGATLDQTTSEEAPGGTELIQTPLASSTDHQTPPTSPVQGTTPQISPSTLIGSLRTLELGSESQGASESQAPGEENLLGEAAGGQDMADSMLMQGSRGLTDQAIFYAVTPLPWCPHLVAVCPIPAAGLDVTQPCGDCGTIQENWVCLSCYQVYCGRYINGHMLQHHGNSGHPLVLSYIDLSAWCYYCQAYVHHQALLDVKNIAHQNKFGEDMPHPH
Assay: Inhibition of human recombinant HDAC6 pre-incubated with compounds for 10 mins measured followed by 60 mins of substrate addition
Conditions: not given

Compound | IC50 [nM]
Nc1ccccc1NC(=O)c1ccc(CNC(=O)c2cnc(-c3ccc4occc4c3)[nH]2)cc1 | > 10000
Nc1ccccc1NC(=O)c1ccc(CNC(=O)c2cnc(-c3ccc4ccccc4c3)[nH]2)cc1 | > 10000
Nc1ccccc1NC(=O)c1ccc(CNC(=O)c2cnc(-c3cccc4ccccc34)[nH]2)cc1 | 9430

Other lines, results leading:

IC50 [nM] | Compound
> 10000 | CCCNNC(=O)c1ccc(CNC(=O)c2cnc(-c3ccc4c(c3)OCCO4)[nH]2)cc1
9020 | CCCNNC(=O)c1ccc(CNC(=O)c2cnc(-c3ccc(F)cc3)[nH]2)cc1
> 10000 | CCCNNC(=O)c1ccc(CNC(=O)c2cnc(-c3ccc(OC)cc3)[nH]2)cc1
> 10000 | CCCNNC(=O)c1ccc(CNC(=O)c2cnc(-c3ccnc4ccccc34)[nH]2)cc1
> 10000 | CCCNNC(=O)c1ccc(CNC(=O)c2cnc(-c3ccc4ccccc4c3)[nH]2)cc1

Target: T2, Histone deacetylase 7 (Homo sapiens, UniProt Q8WUI4)
T2 sequence (Q8WUI4 whole entry): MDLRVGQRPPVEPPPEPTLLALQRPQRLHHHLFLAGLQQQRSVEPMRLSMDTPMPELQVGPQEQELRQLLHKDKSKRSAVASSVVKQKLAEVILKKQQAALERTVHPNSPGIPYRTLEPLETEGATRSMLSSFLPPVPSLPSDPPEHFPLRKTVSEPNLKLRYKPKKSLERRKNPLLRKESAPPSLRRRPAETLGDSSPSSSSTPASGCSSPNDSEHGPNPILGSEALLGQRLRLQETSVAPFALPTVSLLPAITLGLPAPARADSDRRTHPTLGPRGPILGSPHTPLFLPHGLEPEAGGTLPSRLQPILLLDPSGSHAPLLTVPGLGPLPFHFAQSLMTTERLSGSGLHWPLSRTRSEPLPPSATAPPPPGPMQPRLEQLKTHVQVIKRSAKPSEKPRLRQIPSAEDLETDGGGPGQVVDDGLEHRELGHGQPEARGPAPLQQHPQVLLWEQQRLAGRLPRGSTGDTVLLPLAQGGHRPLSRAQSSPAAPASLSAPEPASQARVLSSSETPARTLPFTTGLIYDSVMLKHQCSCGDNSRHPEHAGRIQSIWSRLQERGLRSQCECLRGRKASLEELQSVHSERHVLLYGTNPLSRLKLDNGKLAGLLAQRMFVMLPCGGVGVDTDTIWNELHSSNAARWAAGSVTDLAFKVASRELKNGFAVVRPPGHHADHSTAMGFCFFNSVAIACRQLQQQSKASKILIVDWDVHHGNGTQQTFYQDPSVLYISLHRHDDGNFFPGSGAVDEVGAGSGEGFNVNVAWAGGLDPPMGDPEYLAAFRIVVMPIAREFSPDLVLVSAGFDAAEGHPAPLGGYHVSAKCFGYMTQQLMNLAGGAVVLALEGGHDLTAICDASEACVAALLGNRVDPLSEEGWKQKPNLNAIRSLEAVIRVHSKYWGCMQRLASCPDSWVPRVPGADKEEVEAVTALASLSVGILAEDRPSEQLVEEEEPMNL
Assay: Inhibition of human recombinant HDAC7 pre-incubated with compounds for 10 mins measured followed by 60 mins of substrate addition
Conditions: not given

Compound | IC50 [nM]
Nc1ccccc1NC(=O)c1ccc(CNC(=O)c2cnc(-c3ccc4occc4c3)[nH]2)cc1 | > 10000
Nc1ccccc1NC(=O)c1ccc(CNC(=O)c2cnc(-c3ccc4ccccc4c3)[nH]2)cc1 | > 10000
Nc1ccccc1NC(=O)c1ccc(CNC(=O)c2cnc(-c3cccc4ccccc34)[nH]2)cc1 | > 10000

Results, then the molecule that gave them:

IC50 [nM] | Compound
> 10000 | CCCNNC(=O)c1ccc(CNC(=O)c2cnc(-c3ccc4c(c3)OCCO4)[nH]2)cc1
> 10000 | CCCNNC(=O)c1ccc(CNC(=O)c2cnc(-c3ccc(F)cc3)[nH]2)cc1
> 10000 | CCCNNC(=O)c1ccc(CNC(=O)c2cnc(-c3ccc(OC)cc3)[nH]2)cc1
> 10000 | CCCNNC(=O)c1ccc(CNC(=O)c2cnc(-c3ccnc4ccccc34)[nH]2)cc1
> 10000 | CCCNNC(=O)c1ccc(CNC(=O)c2cnc(-c3ccc4ccccc4c3)[nH]2)cc1

Target: T3, Histone deacetylase 8 (Homo sapiens, UniProt Q9BY41)
T3 sequence (Q9BY41 whole entry): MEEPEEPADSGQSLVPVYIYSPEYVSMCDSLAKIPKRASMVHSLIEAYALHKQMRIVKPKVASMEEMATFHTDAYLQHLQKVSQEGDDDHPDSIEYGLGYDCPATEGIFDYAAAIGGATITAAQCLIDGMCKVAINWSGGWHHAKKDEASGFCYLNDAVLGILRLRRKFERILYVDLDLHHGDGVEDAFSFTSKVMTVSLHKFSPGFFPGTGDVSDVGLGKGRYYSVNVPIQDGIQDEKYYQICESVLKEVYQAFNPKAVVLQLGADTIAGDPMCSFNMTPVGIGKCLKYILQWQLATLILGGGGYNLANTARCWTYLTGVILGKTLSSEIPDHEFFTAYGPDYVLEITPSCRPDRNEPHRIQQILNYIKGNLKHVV
Assay: Inhibition of human recombinant HDAC8 pre-incubated with compounds for 10 mins measured followed by 60 mins of substrate addition
Conditions: not given

Compound | IC50 [nM]
Nc1ccccc1NC(=O)c1ccc(CNC(=O)c2cnc(-c3ccc4occc4c3)[nH]2)cc1 | > 10000
Nc1ccccc1NC(=O)c1ccc(CNC(=O)c2cnc(-c3ccc4ccccc4c3)[nH]2)cc1 | > 10000
Nc1ccccc1NC(=O)c1ccc(CNC(=O)c2cnc(-c3cccc4ccccc34)[nH]2)cc1 | > 10000

Other lines, results leading:

IC50 [nM] | Compound
> 10000 | CCCNNC(=O)c1ccc(CNC(=O)c2cnc(-c3ccc4c(c3)OCCO4)[nH]2)cc1
> 10000 | CCCNNC(=O)c1ccc(CNC(=O)c2cnc(-c3ccc(F)cc3)[nH]2)cc1
> 10000 | CCCNNC(=O)c1ccc(CNC(=O)c2cnc(-c3ccc(OC)cc3)[nH]2)cc1
> 10000 | CCCNNC(=O)c1ccc(CNC(=O)c2cnc(-c3ccnc4ccccc34)[nH]2)cc1
> 10000 | CCCNNC(=O)c1ccc(CNC(=O)c2cnc(-c3ccc4ccccc4c3)[nH]2)cc1

Tested on: HeLa
Assay: Antiproliferative activity against human HeLa cells measured after 48 hrs incubation by MTT assay relative to control
Assay type: functional, cell-based
Conditions: not given

Compound | IC50 [nM]
CCCNNC(=O)c1ccc(CNC(=O)c2cnc(-c3ccc4ccccc4c3)[nH]2)cc1 | 1670

Tested on: HepG2
Assay: Antiproliferative activity against human HepG2 cells measured after 48 hrs incubation by MTT assay relative to control
Assay type: functional, cell-based
Conditions: HepG2, 48 h

Compound | IC50 [nM]
CCCNNC(=O)c1ccc(CNC(=O)c2cnc(-c3ccc4ccccc4c3)[nH]2)cc1 | 690

Tested on: MCF7
Assay: Antiproliferative activity against human MCF7 cells measured after 48 hrs incubation by MTT assay relative to control
Assay type: functional, cell-based
Conditions: MCF7, 48 h

Compound | IC50 [nM]
CCCNNC(=O)c1ccc(CNC(=O)c2cnc(-c3ccc4ccccc4c3)[nH]2)cc1 | 2110

Tested on: MC-38
Assay: Antiproliferative activity against mouse MC38 cells measured after 48 hrs incubation by MTT assay relative to control
Assay type: functional, cell-based
Conditions: MC-38, 48 h

Compound | IC50 [nM]
CCCNNC(=O)c1ccc(CNC(=O)c2cnc(-c3ccc4ccccc4c3)[nH]2)cc1 | 3470

Tested on: not listed separately
Assay: Antiproliferative activity against […] cells measured after 48 hrs incubation by MTT assay relative to control
Assay type: functional, cell-based
Conditions: Mus musculus, Lung cancer cell line

Compound | IC50 [nM]
CCCNNC(=O)c1ccc(CNC(=O)c2cnc(-c3ccc4ccccc4c3)[nH]2)cc1 | 1370

Tested on: HCT-116
Assay: Antiproliferative activity against human HCT-116 cells measured after 48 hrs incubation by MTT assay relative to control
Assay type: functional, cell-based
Conditions: HCT-116, 48 h

Compound | IC50 [nM]
CCCNNC(=O)c1ccc(CNC(=O)c2cnc(-c3ccc4ccccc4c3)[nH]2)cc1 | 220

Tested on: B16-F10 (Mus musculus)
Assay: Antiproliferative activity against mouse B16-F10 cells measured after 48 hrs incubation by MTT assay relative to control
Conditions: B16-F10, 48 h

Compound | IC50 [nM]
CCCNNC(=O)c1ccc(CNC(=O)c2cnc(-c3ccc4ccccc4c3)[nH]2)cc1 | 1970

Tested on: B16-F10
Assay: Antiproliferative activity against mouse B16-F10 cells at 1 uM measured after 48 hrs incubation by MTT assay relative to control
Conditions: not given

Compound | Activity [%]
CCCNNC(=O)c1ccc(CNC(=O)c2cnc(-c3ccc4c(c3)OCCO4)[nH]2)cc1 | 23.11
CCCNNC(=O)c1ccc(CNC(=O)c2cnc(-c3ccc(F)cc3)[nH]2)cc1 | 37.64
CCCNNC(=O)c1ccc(CNC(=O)c2cnc(-c3ccc(OC)cc3)[nH]2)cc1 | 33.01
Nc1ccccc1NC(=O)c1ccc(CNC(=O)c2cnc(-c3ccc4occc4c3)[nH]2)cc1 | 31.86
CCCNNC(=O)c1ccc(CNC(=O)c2cnc(-c3ccnc4ccccc34)[nH]2)cc1 | 13.07
Nc1ccccc1NC(=O)c1ccc(CNC(=O)c2cnc(-c3ccc4ccccc4c3)[nH]2)cc1 | 28.15
Nc1ccccc1NC(=O)c1ccc(CNC(=O)c2cnc(-c3cccc4ccccc34)[nH]2)cc1 | 39.28
CCCNNC(=O)c1ccc(CNC(=O)c2cnc(-c3ccc4ccccc4c3)[nH]2)cc1 | 52.99
